Patent US10828275B2, “Selective targeting of procoagulant platelets” (NewSouth Innovations Pty Limited, priority 2014, dated 2020)
Residues, ends and D or L forms follow the SMILES beside them. *: point of attachment. Cbz = O=C(OCc1ccccc1)*; CH2F = FC*

Tests used:
[1] = test system: washed human platelets; assay: ABT-737 induced platelet apoptosis and pancaspase inhibition (flow cytometry); format: cell-based
Protocol: FIG. 4. Labeling with GSAO and exposure of P-selectin distinguishes necrotic from apoptotic platelets. […] The percentage of GSAO+ platelets are graphed with respect to P-selectin exposure. C. Washed human platelets were preincubated with 200 μM of ZVADFMK or vehicle control for 15 min then incubated with 30 μM of ABT-737 for 2 h (part F), or stimulated with thrombin (0.1 units/mL) and collagen (5 μg/mL) for 10 min (part G). Labeling with GSAO-AF647 and exposure of P-selection was measured by flow cytometry. D. Washed human platelets from healthy donors (n=5-11) were untreated or stimulated with thrombin (0.1 units/mL), collagen (5 μg/mL), or thrombin (0.1 units/mL) and collagen (5 μg/mL) for 10 min. […] The error bars are mean±SD.
Bcl-XL dependent apoptosis is involved in regulation of platelet life span, although the role of platelet apoptosis in thrombosis is controversial. In order to determine if GSAO can differentiate agonist-induced necrotic versus apoptotic platelets, platelet apoptosis was triggered using the BH3 mimetic ABT-737. GSAO labelled P-selectin negative apoptotic platelets (FIGS. 4A and B). The GSAO+ population also labeled with a polycaspase marker and annexin V, both indicators of apoptotic cells. […] Washed platelets from healthy donors were untreated or stimulated with thrombin, collagen or thrombin and collagen and examined for apoptosis (GSAO+/P-selectin−) and necrosis (GSAO+/P-selectin+) (FIG. 4D). These agonists trigger platelet necrosis but not apoptosis.

[2] = test system: washed human platelets; assay: Direct mitochondrial membrane depolarization and GSAO labelling; format: cell-based; conditions: CCCP 4 μM
Description: FIG. 9. Mitochondrial membrane disruption is not sufficient for GSAO labeling.
The cyclophilin D-dependent regulated necrosis pathway is characterized by agonist stimulation, raised intracellular calcium, formation of the mitochondrial transition pore and loss of mitochondrial membrane potential. Dual agonist stimulation of platelets results in loss of mitochondrial transmembrane potential (FIG. 5A). The onset of mitochondrial depolarisation (FIG. 5B) and phosphatidylserine exposure (FIG. 5C) are coincident with GSAO labeling.
Mitochondrial membrane potential was measured using the JC-1 cationic dye (5,5′,6,6′-tetrachloro-1,1′,3,3′-tetraethyl-imidacarbocyanine iodide, Sigma) (Life Technologies). Washed platelets were incubated with JC-1 (2 μM) for 30 min in the dark at 37° C., washed once and analyzed immediately on a BDFACS Canto II. On some occasions, washed platelets were incubated with the mitochondrial membrane disrupter 2-[2-(3-chlorophenyl)hydrazinylyidene]propanedinitrile (CCCP, 4 μM) for 10 min.

[3] = test system: P-selectin+ activated platelets; assay: DIDS effect on GSAO-AF647 labelling of agonist-stimulated platelets (flow cytometry); format: cell-based, human; conditions: thrombin (0.1 units/mL) and collagen (5 μg/mL); 0-200 μM DIDS for 10 min; read-out: half-maximal concentration for inhibition of GSAO labelling of P-selectin+ activated platelets
Protocol: (§1) FIG. 2. GSAO rapidly enters the activated platelet subpopulation via an organic anion-transporting polypeptide. A. The kinetics of labeling of stimulated platelets with GSAO-AF647 was measured by time lapse flow cytometry. Flow plots are representative of n≥3 separate experiments, and bars and data points are from n≥3 separate experiments. *p<0.05, ****p<0.0001. B-C. […] DIDS inhibited GSAO labelling of P-selectin+ activated platelets at a half-maximal concentration of ˜30 μM. The data points and errors are the mean±range of 1-5 experiments.
The organic anion-transporting polypeptide (OATP) family has been implicated in transport across the plasma membrane of organic anions in the same class as GSAO (Dilda et al., 2009; Dilda et al., 2008). Nine members of the OATP family have been reported in humans (Hagenbuch et al., 2003) and platelets express OATP2B1 (Niessen et al., 2009). DIDS is an inhibitor of OATP class B transporters (Kobayashi et al. 2003) and the present inventors tested its effect on GSAO labelling of agonist-stimulated platelets. DIDS inhibited GSAO labelling of P-selectin+ activated platelets (FIG. 2B) at a half-maximal concentration of ˜30 μM (FIG. 2C). GSAO is retained in the platelet cytoplasm through covalent reaction with closely-spaced protein cysteine thiols (Park et al., 2011) (data not shown).

[4] = test system: washed human platelets; assay: GSAO-AF647 labelling of thrombin and collagen stimulated platelets after preincubation; format: cell-based; conditions: CaCl2 preincubation 15 min
Protocol: FIG. 5. […] A. Washed human platelets were untreated or stimulated with thrombin (0.1 units/mL) and collagen (5 μg/mL) or the mitochondrial membrane disrupter CCCP (4 μM). Mitochondrial transmembrane potential was measured using the cationic dye, JC-1. The ratio of distribution of JC-1 between the mitochondria (red fluorescence) and cytosol (green fluorescence) reflects mitochondrial transmembrane potential. […] B-C. […] E. Washed human platelets were preincubated with CaCl2 for 15 min and then untreated or stimulated with thrombin (0.1 units/mL) and collagen (5 μg/mL).

[5] = test system: stimulated platelets; assay: Kinetics of GSAO-AF647 labelling by time lapse flow cytometry; format: cell-based, human
Protocol: as §1
The rate of GSAO+ platelet generation after agonist exposure was measured using time lapse flow cytometry. Results are reported for GSAO+ events based on lead in time prior to agonist exposure threshold.

[6] = test system: washed human platelets; assay: GSAO-AF647 labelling and P-selectin exposure of washed platelets (flow cytometry); format: cell-based; conditions: thrombin 0.1 units/mL, collagen 5 μg/mL
Protocol: FIG. 1. GSAO labels a subpopulation of activated platelets. A. Structure of GSAO and site of conjugation of AF647, Oregon Green or biotin. B. Washed human platelets were stimulated with calcium ionophore (1 μM) and activation and plasma membrane compromise measured by flow cytometry. […] C. […] E. Washed human platelets were stimulated with collagen or collagen-related peptide and co-labeling with P-selectin and GSAO-AF647 measured by flow cytometry.
Calcium ionophore treatment of platelets leads to a sustained rise in intracellular calcium and surface elaboration of phosphatidylserine, which are features of both the procoagulant and necrotic phenotype (Bevers et al., 1982). Washed human platelets were treated with calcium ionophore and labeled with GSAO-AF647 and an antibody against the α-granule marker, P-selectin.
To determine whether GSAO labeling reflects this agonist profile, washed human platelets were stimulated with thrombin, collagen, or both thrombin and collagen. […] To determine if signalling through the collagen receptor, GPVI, was sufficient to generate the GSAO+ phenotype, the maximal proportion of GSAO+ platelets generated by collagen was compared with the GPVI specific activator, collagen related peptide.
The relationship between the activated and procoagulant phenotype of platelets remains controversial (Dale et al., 2002; Abaeva et al., 2013). Procoagulant platelets are characterised by presence of phosphatidylserine on the platelet surface, surface binding of plasma derived activated clotting factors, ability to generate thrombin and promotion of fibrin formation. Regardless of the agonist stimulus, 100% of GSAO+ platelets were positive for α-granule P-selectin, which implies that α-granule release is a prerequisite for GSAO labeling after agonist stimulation (FIG. 1). […] Of note, a subpopulation of GSAO− platelets also bound annexin V so platelet necrosis is not required for exposure of phosphatidylserine.

[7] = test system: platelets in human whole blood; assay: Whole blood assay for procoagulant platelet potential, human blood; format: cell-based; conditions: for proportion of procoagulant platelets (GSAO+/P-selectin+): thrombin 2 U/mL, collagen 10 μg/mL, mean±SEM, 16-35 donors
Description: FIG. 12. Gating strategy for detection of procoagulant platelets in human whole blood. A. Platelets were identified as CD41a positive and CD45 negative events. B. Threshold values for P-selectin and GSAO fluorescence were set using agonist stimulated sample stained with control IgG isotype and GSCA respectively. C. At rest, very few platelets show the procoagulant phenotype (P-selectin+/GSAO+).
FIG. 13. Assay for procoagulant platelet potential in human blood. […] The maximal response (17.3±1.3%) was observed after stimulation with combination of thrombin and collagen. Results are mean±SEM from 16-35 donors. One-way ANOVA, […], Holm-Sidak multiple comparisons correction. *, p<0.05; ****, p<0.0001.
(§2) Blood from healthy human volunteers was drawn from an antecubital fossa vein using a 21-gauge needle into evacuated sterile collection tubes containing 0.109 M sodium citrate. Following no or minimal tourniquet application, the initial 2 mL of blood was discarded to avoid pre-analytical activation of platelets. The tube was gently mixed by inversion six times. Murine blood samples were collected by cardiac puncture under isoflurane anesthesia. Following midline abdominal and bilateral subcostal surgical incisions to expose the heart, blood was drawn from the left ventricle through a 25G needle into a 1 mL syringe containing sodium citrate (0.109 M) resulting in a blood to citrate ratio of 9:1. The needle was removed and the blood was gently expelled from the syringe into a sterile microcentrifuge tube and mixed gently by pipetting up and down 5 times.
Following collection, tubes were kept upright at room temperature and blood was assayed within 15 min of collection. Incubation and staining steps were performed in a sterile 96-well polypropylene plate. […]
(§3) Fixed cells were analyzed by flow cytometry 1 to 3 h after fixation at an average event rate of 2000 events per sec in an LSRFortessa flow cytometer, equipped with either four (405 nm, 488 nm, 561 nm and 640 nm) or five (395 nm) lasers (BD Biosciences). […]

[8] = test system: platelets in mouse blood; assay: Whole blood assay for procoagulant platelet potential, mouse blood; format: cell-based; conditions: thrombin 2 U/mL, CRP 500 ng/mL; n=3 C57Bl6 bloods
Protocol: FIG. 14. Assay for procoagulant platelet potential in mouse blood. […] Bars and errors are mean±SEM of n=3 C57B16 bloods. One-way ANOVA. **, p<0.01; ****, p<0.0001.
as §2
Following collection, tubes were kept upright at room temperature and blood was assayed within 15 min of collection. […]
as §3

CN(C)CC[C@H](CSc1ccccc1)Nc1ccc(S(=O)(=O)NC(=O)c2ccc(N3CCN(Cc4ccccc4-c4ccc(Cl)cc4)CC3)cc2)cc1[N+](=O)[O-] [ABT-737]
platelet phenotype induced ([1]; ABT-737 for 2 h): induced GSAO+/P-selectin− platelets

N#CC(C#N)=NNc1cccc(Cl)c1 [CCCP, 2-[2-(3-chlorophenyl)hydrazinylyidene]propanedinitrile]
GSAO labelling after direct mitochondrial membrane depolarization [2]: does not result in GSAO labelling

O=S(=O)(O)c1cc(N=C=S)ccc1C=Cc1ccc(N=C=S)cc1S(=O)(=O)O [DIDS]
IC50 [3]: ~30 µM

COC(=O)C[C@H](NC(=O)[C@H](C)NC(=O)[C@@H](NC(=O)OCc1ccccc1)C(C)C)C(=O)CF [ZVADFMK] (Cbz-Val-Ala-Asp(OMe)-CH2F)
effect on ABT-737 induced GSAO+/P-selectin− platelets ([1]; 200 μM ZVADFMK 15 min, then 30 μM ABT-737 2 h): reduced | effect on GSAO labeling of thrombin and collagen stimulated platelets ([1]; 200 μM ZVADFMK 15 min, then agonists 10 min): no effect

[Ca] [calcium]
effect of added calcium on GSAO+ agonist stimulated platelets [4]: promoted

collagen
time course of GSAO labeling after agonist [5]: gradual increase in GSAO labeling over 60 sec | GSAO+ platelets generated by agonist [6]: moderate proportion | proportion of procoagulant platelets (GSAO+/P-selectin+) [7]: 1.2±0.2%

collagen related peptide
GSAO+ platelets generated by agonist [6]: majority of the collagen effect was recapitulated | potency as inducer of murine procoagulant platelets [8]: significantly less potent than thrombin but synergizes with thrombin

thrombin
time course of GSAO labeling after agonist [5]: little GSAO labeling compared with unstimulated platelets | GSAO+ platelets generated by agonist [6]: minimal GSAO+ platelets | potency as inducer of procoagulant platelets in human blood [7]: most potent inducer | proportion of procoagulant platelets (GSAO+/P-selectin+) [7]: 13.2±1.1% | potency as inducer of murine procoagulant platelets [8]: most potent inducer
